From PubChem BioAssay (NCI)
“And” between values parts separate entries of the source, which are not always exact repeats. Equal entries are not always repeated.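 48-hour exposure; five concentrations; linearly interpolated endpoints. Abbreviation: GI50, concentration required for 50% inhibition of growth. TGI: total growth inhibition.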

What was measured:
Assay in all cases: DTP human tumour cell line panel, 48 h
786-0 renal = test system: 786-0 renal
BT-549 breast = test system: BT-549 breast
CCRF-CEM leukemia = test system: CCRF-CEM leukemia
IGROV1 ovarian = test system: IGROV1 ovarian
LOX IMVI melanoma = test system: LOX IMVI melanoma
M14 melanoma = test system: M14 melanoma
MALME-3M melanoma = test system: MALME-3M melanoma
NCI/ADR-RES ovarian = test system: NCI/ADR-RES ovarian
SF-539 CNS = test system: SF-539 CNS
SNB-75 CNS = test system: SNB-75 CNS

Structure (SMILES) | GI50 (786-0 renal) | TGI (786-0 renal) | GI50 (BT-549 breast) | TGI (BT-549 breast) | GI50 (CCRF-CEM leukemia) | TGI (CCRF-CEM leukemia) | GI50 (IGROV1 ovarian) | TGI (IGROV1 ovarian) | GI50 (LOX IMVI melanoma) [µM] | TGI (LOX IMVI melanoma) [µM] | GI50 (M14 melanoma) | TGI (M14 melanoma) | GI50 (MALME-3M melanoma) | TGI (MALME-3M melanoma) | GI50 (NCI/ADR-RES ovarian) | TGI (NCI/ADR-RES ovarian) | GI50 (SF-539 CNS) | TGI (SF-539 CNS) | GI50 (SNB-75 CNS) | TGI (SNB-75 CNS)
CCC(=O)Nc1nnc(Cc2ccc(OC)c(OC)c2)s1 | > 100 µM | > 100 µM | > 100 µM | > 100 µM | > 100 µM | > 100 µM | > 100 µM | > 100 µM | > 100 | > 100 | > 100 µM | > 100 µM | > 100 µM | > 100 µM | > 100 µM | > 100 µM | > 100 µM | > 100 µM | 44.2 µM | > 100 µM
Oc1[nH]c2ccccc2c1C=Nc1ccc(-n2cncn2)cc1 | > 25 µM | > 25 µM | > 18.9 µM | > 25 µM | 3.06 µM | > 25 µM | > 25 µM | > 25 µM | > 19.2 | > 25 | > 25 µM | > 25 µM | > 16 µM | > 25 µM | 15.7 µM | > 25 µM | > 25 µM | > 25 µM | > 25 µM | > 25 µM
N#Cc1c(N)nc(N2CCOCC2)c(C#N)c1-c1c(Cl)cccc1Cl | 12.9 µM | 36.7 µM | 7 µM | 79.7 µM | 4.91 µM | 46.6 µM | 1.98 µM | 5.08 µM | 5.88 | 24 | 2.47 µM | 7.42 µM | 3.72 µM | 13.5 µM | 2.34 µM | 7.46 µM | 12.2 µM | 49.8 µM | 1.75 µM | 9.66 µM
C(=N\Nc1ccc2ccccc2n1)/c1ccccn1 | 0.317 µM | – | 1.1 µM | > 38.9 µM | 0.371 µM | > 100 µM | 0.388 µM | 8.66 µM | 0.422 | 13.8 | 0.565 µM | 3.45 µM | 1.35 µM | 8.34 µM | 0.345 µM | 10.6 µM | 0.362 µM | 6.83 µM | 1.1 µM | 51.2 µM
Cc1cc(N(CCNc2ccnc3cc(Cl)ccc23)Cc2ccc3c(c2)OCO3)nc(N2CCCC2)n1 | 1.33 µM | 2.85 µM | 1.82 µM | 4.27 µM | 1.57 µM | 9.09 µM | 1.54 µM | 3.64 µM | 1.6 | 3.16 | 1.83 µM | 3.71 µM | 1.89 µM | 3.54 µM | 1.79 µM | 5.56 µM | 1.6 µM | 3.09 µM | 1.34 µM | 3 µM
CCN1C(=O)N(CC)C2C1N=C(SC)N2/N=C/C=C/c1ccccc1OC (configuration not stated) | 0.538 µM | 31.7 µM | 0.479 µM | 19.6 µM | 0.379 µM | > 48.2 µM | 0.618 µM | > 45.1 µM | 0.564 | > 36.7 | 0.33 µM | > 37.4 µM | 1.01 µM | > 42.8 µM | 0.329 µM | – | 0.315 µM | 1.69 µM | 0.363 µM | 52.5 µM
COc1cnccc1Nc1nc(-c2nn(Cc3c(F)cc(OCCO)cc3F)c3ccccc23)ncc1OC | 1.76 µM | 5.44 µM | 6.51 µM | 28.5 µM | 0.946 µM | > 100 µM | 2.89 µM | 16.4 µM | 1.84 | 19.3 | 1.79 µM | 10 µM | 2.16 µM | 5.88 µM | 2.97 µM | 16.5 µM | 10.7 µM | 22.9 µM | 3.76 µM | 18.4 µM
CCOC(=O)/C=C1/SC(=Nc2ccc(C#N)cc2)N(Cc2ccco2)C1=O | 1.93 µM | 4.17 µM | 10.8 µM | 52.6 µM | 3.17 µM | > 100 µM | 3.22 µM | 20.2 µM | 1.72 | 3.32 | 2.22 µM | 6.55 µM | 2.45 µM | 9.65 µM | 3.42 µM | 90.8 µM | 3.09 µM | 12.4 µM | 10.3 µM | 55.4 µM
C[C@]12CCC(=O)C[C@@H]1CC[C@@H]1[C@@H]2CC[C@]2(C)[C@@H](OC(=O)N(CCCl)N=O)CC[C@@H]12 | 0.118 µM | 3.66 µM | 4.87 µM | 21.7 µM | 0.207 µM | – | 1.47 µM | 12.8 µM | 0.625 | 15.4 | 0.752 µM | 22.3 µM | 4.3 µM | 24.1 µM | 1.22 µM | 28 µM | 0.069 µM | 4.67 µM | 0.507 µM | 13.3 µM
O=C1/C(=C/c2ccc([N+](=O)[O-])o2)Oc2ccc(Cl)cc21 | 2.72 µM | 7.06 µM | 1.67 µM | 3.32 µM | 0.429 µM | 2.24 µM | 1.92 µM | 4.5 µM | 1.59 | 3.19 | 2.01 µM | 4.93 µM | 2.1 µM | 4.47 µM | 3.36 µM | > 100 µM | 1.82 µM | 3.97 µM | 1.6 µM | 5.44 µM
CNC(=O)c1cc(Oc2ccc(NC(=O)Nc3cc(C(C)(C)C)nn3-c3ccc4ncccc4c3)c(F)c2)ccn1 | 2.69 µM and 3.08 µM | 8.13 µM and 8.95 µM | 1.08 µM and 2.27 µM | 4.58 µM and 5.65 µM | 2.35 µM and 2.57 µM | 8.36 µM and > 31.6 µM | 0.712 µM and 1.26 µM | 6.61 µM and 6.8 µM | 0.405 | 2.08 | 0.37 µM and 0.395 µM | 2.49 µM and 2 µM | 0.212 µM and 0.0536 µM | 1.31 µM and 0.5 µM | 2.65 µM and 3.36 µM | 8.39 µM and 58.4 µM | 2 µM and 1.71 µM | 4.62 µM and 3.66 µM | 1.09 µM and 1.01 µM | 2.7 µM and 3.01 µM
COc1cc(C(=O)n2nc(N)c3c(C)cc(C)nc32)cc(OC)c1OC | > 100 µM | > 100 µM | > 100 µM | > 100 µM | > 89.2 µM | > 100 µM | > 100 µM | > 100 µM | > 100 | > 100 | > 73.7 µM | > 100 µM | > 100 µM | > 100 µM | 16.3 µM | > 100 µM | > 23.4 µM | > 100 µM | > 38.3 µM | > 100 µM
Cc1cc(N2CCOCC2)nc(NCc2cc(Nc3ccnc4cc(Cl)ccc34)ccc2F)n1 | 1.83 µM | 3.35 µM | 1.72 µM | 3.53 µM | 1.46 µM | 4.79 µM | 1.64 µM | 3.92 µM | 1.75 | 3.27 | 1.86 µM | 3.57 µM | 1.98 µM | 3.68 µM | 1.73 µM | 3.31 µM | 1.79 µM | 3.28 µM | 1.19 µM | 2.64 µM
N=C(CC(=O)Nc1ccccn1)c1ccccc1 | – | > 100 µM | – | > 100 µM | – | > 100 µM | – | > 100 µM | – | > 100 | – | > 100 µM | – | > 100 µM | – | > 100 µM | – | > 100 µM | – | > 100 µM
CC(C)(C)[Si](C)(C)OC1[C@@H](COC(=O)NC(=O)CCl)O[C@@H](n2cnc3c(N)ncnc32)[C@H]1O[Si](C)(C)C(C)(C)C (some centres not stated) | 1.05 µM | 2.33 µM | 0.922 µM | 1.85 µM | 0.232 µM | 0.931 µM | 0.783 µM | 1.67 µM | 0.41 | 1.13 | 1.39 µM | 4.23 µM | 0.984 µM | 2.01 µM | 5.44 µM | 12.2 µM | 6.97 µM | 13.6 µM | 3.64 µM | 10.8 µM
